According to paper PMC10504053, “First-in-Human PET Imaging of [^18F]SDM-4MP3: A Cautionary Tale” (Molecular Imaging, 2023):

Experiments:
SV2A = molecular target: SV2A; parameters: method as in PMID 34722967, PMID 24446373; details: affinity to SV2A, in vitro binding; cited from earlier work
[1] = molecular target: T1, synaptic vesicle protein 2A (SV2A) (Homo sapiens, UniProt Q7L0J3); assay: Human brain PET imaging (SUV, SUVR, 1-TCM VT with arterial input function); assay type: in vivo; details: for VT (SE %) from fitting of 1-TCM: human brain PET; for time of peak brain uptake: P1 ([18F]SDM-4MP3) vs P3 ([18F]SynVesT-1); for SUVR: 60-90 min, centrum semiovale reference
T1 construct: from tissue; host or cells: brain of living human participants (in vivo PET)
T1 sequence (Q7L0J3 whole entry): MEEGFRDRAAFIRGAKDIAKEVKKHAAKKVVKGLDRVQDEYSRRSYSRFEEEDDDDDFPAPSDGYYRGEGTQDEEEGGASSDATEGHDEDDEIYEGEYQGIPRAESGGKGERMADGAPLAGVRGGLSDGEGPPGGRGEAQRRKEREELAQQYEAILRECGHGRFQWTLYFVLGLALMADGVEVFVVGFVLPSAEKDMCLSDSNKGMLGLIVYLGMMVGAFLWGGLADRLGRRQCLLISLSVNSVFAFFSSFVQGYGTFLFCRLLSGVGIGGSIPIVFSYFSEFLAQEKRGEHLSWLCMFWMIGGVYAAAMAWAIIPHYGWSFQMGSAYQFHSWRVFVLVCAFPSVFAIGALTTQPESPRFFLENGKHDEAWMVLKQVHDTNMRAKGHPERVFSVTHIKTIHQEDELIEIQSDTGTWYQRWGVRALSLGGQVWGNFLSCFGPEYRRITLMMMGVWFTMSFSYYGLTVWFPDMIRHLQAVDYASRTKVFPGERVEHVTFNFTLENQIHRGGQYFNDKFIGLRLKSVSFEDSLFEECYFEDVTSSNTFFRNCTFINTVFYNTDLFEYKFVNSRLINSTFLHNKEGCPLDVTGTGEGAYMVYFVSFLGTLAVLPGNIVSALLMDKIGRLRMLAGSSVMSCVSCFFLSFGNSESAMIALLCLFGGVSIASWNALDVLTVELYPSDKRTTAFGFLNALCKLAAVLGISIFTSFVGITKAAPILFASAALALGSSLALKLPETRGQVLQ
Description: All human components of the study were approved according to the Research Ethics Board for Human Subjects at CAMH (CTA 125, REB 075/2019). All participants were recruited from the community and provided written informed consent. Participant inclusion criteria were self-report of good health. Exclusion criteria included any history of neurological or psychiatric disorder; cognitive impairment according to MoCA assessment (score less than 26); pregnancy and/or nursing; and disorders of coagulation, blood, or ongoing use of anticoagulant medication. Each participant's height, weight, current medications, and smoking status was recorded. Participants abstained from taking […] medications, including aspirin [13], for 24 hours prior to the PET exam (see Table 1).
Participants were scanned on a 5-ring GE Discovery MI PET/CT (GE Healthcare Technologies, Chicago, Illinois). Participants 1 and 2 (P1 and P2) were scanned with [^18F]SDM-4MP3 (the radiopharmaceutical synthesized from the ABX precursor), and [^18F]SynVesT-1 (synthesized from the Yale precursor) was used for PET imaging of participants 3 and 4 (P3 and P4). A thermoplastic facemask (Tru-Scan Imaging, Annapolis) was used to restrict head motion within the PET scanner bore. CT was used to acquire a scout scan, followed by a low-dose scan for attenuation correction. The radiopharmaceutical (target dose 185 MBq ± 10%, molar activity > 11 GBq/μmol) was delivered starting 30 s after the initiation of the emission scan, with a smooth bolus injection by hand (2-5 s) via intravenous line placed in the antecubital vein, followed by a 10 mL saline flush to clear residual activity from the line. Emission data was acquired for 120-125 min, allowing up to 5 min for a background frame sampled at 1 s intervals to determine the precise starting time of brain uptake, and used to establish the duration of the background frame inserted prior to dynamic frame reconstruction. Data acquired after the start of brain uptake was reconstructed into frames using FORE rebinning and filtered back-projection, using a Hanning filter at the Nyquist frequency to create a dynamic image set. Frame definitions were 30 s × 3, 60 s × 3, 120 s × 2, 300 s × 22 (total = 120 min). For use as a reference for motion correction, images were also reconstructed without attenuation correction using an iterative method with 4 subsets and 6 iterations. All reconstructions were performed using vendor algorithms on the GE DMI console. […] A spatial resolution of approximately 5.8 × 5.8 × 5.6 mm was achieved (measured in accordance with National Electrical Manufacturers Association NU 2-2007 standards). The mean injected activity was 192.7 MBq for [^18F]SDM-4MP3 and 184.3 MBq for [^18F]SynVesT-1 (Table 1).
(§1) The arterial line was placed into the radial artery by a qualified respiratory therapist. Up to 160 mL of arterial blood was collected via automated blood sampler (ABSS, Comecer PBS-101) and via manual samples for plasma metabolite correction. The ABSS protocol was started ~15 s after emission scan start, and pump speed was set to 300 mL/h, to reduce dispersion in ABSS lines during maximum rate of change of arterial activity concentration, at 1 s sampling period for 5 min and 2 s sampling period for 136 s. Pump speed was decreased to 180 mL/h at a sampling period of 5 s for the following 360 s and a sampling period of 10 s for 540 s, for a total sampling time of 22 min and 16 s. Manual samples were collected at baseline, 2.5, 7, 12, 15, 20, 30, 45, 60, 90, and 110 min relative to emission scan start into PTFE tubes, followed by a saline flush for all except 2.5- and 7-min samples to avoid discontinuities in arterial data during peak uptake.
(1) Image Registration and Region of Interest. […]

[2] = Arterial plasma radiometabolite analysis (column-switching HPLC) in human participants; assay type: in vivo; details: human arterial plasma parent fraction, compared with [18F]SynVesT-1
Method: as §1, with “Manual samples were collected at baseline, 2.5, 7, 12, 15, 20, 30, 45, 60, 90, and 110 min relative to emission scan start into PTFE tubes, followed by a saline flush for all except 2.5- and 7-min samples to avoid discontinuities in arterial data during peak uptake.” left out
Baseline whole blood samples were centrifuged at 3100 RPM at room temperature for 5 min to extract plasma. […] Each subsequent manual sample was centrifuged at 3900 rpm at 4°C for 5 min, and 0.3 mL of whole blood and 0.3 mL of plasma were extracted and measured on a gamma counter (Wizard 2480, Perkin Elmer, Turku, Finland) to quantify activity concentration.
(1) Column-Switching HPLC. […] Samples were initially analyzed in capture mode with the capture solvent flow rate of 1.8 mL/min for 4 min before switching to analysis mode with the analysis solvent running at 1.8 mL/min for an additional 12 min. […]

[3] = molecular target: T2, synaptic vesicle protein 2A (SV2A) (Rattus norvegicus, UniProt Q02563); assay: Preclinical PET imaging in rats (whole-brain uptake); assay type: in vivo, Sprague-Dawley rats; details: for initial peak uptake in the rodent brain: rat whole-brain time-activity curve
T2 construct: from tissue; host or cells: brain of living Sprague-Dawley rats (in vivo PET)
T2 sequence (Q02563 whole entry): as the sequence (Q7L0J3 whole entry) above, with D53E, S62A, T71A, E144D, A154T, G440S, S482A, I572V, M634L counted along it
Method: Preclinical PET imaging studies were approved by the Animal Care Committee at CAMH (Animal Use Protocol #838). Six adult Sprague-Dawley rats were scanned for 120 min on either a Mediso nanoScan PET/MR 3 T or PET/CT scanner (Budapest, Hungary), and the images were analyzed using VivoQuant® software (version 4.1, Invicro LLC, Needham, MA, USA), as described previously. Five rats (3 M/2F, 528 ± 46 g) were used for the baseline [^18F]SynVesT-1 scans (injected dose: 13.3 ± 3.2 MBq; molar activity: 157 ± 64 GBq/μmol; mass injected: 0.22 ± 0.08 nmol/kg), with two of the male rats also scanned after injection of the blocking drug levetiracetam (cat#L1784, LKT Laboratories Inc, St Paul, MN, USA) at 30 mg/kg (i.v., 15 min before the tracer; injected dose: 10.2 ± 0.1 MBq; molar activity: 78 ± 15 GBq/μmol; injected mass: 0.24 ± 0.04 nmol/kg). One female rat (273 g) was used for the 120 min scan with [^18F]SDM-4MP3 (injected dose: 13.0 MBq; molar activity: 125.5 GBq/μmol; injected mass: 0.38 nmol/kg). Acquired list mode data were sorted into thirty-nine 3-dimensional (3D) (3 × 5 s, 3 × 15 s, 3 × 20 s, 7 × 60 s, 17 × 180 s, and 6 × 600 s) true sinograms (ring difference 84) and reconstructed with a 2D filtered back-projection algorithm with corrections for detector geometry, efficiencies, attenuation, and scatter and dead time and were decay-corrected to the start of acquisition. Static images of the complete emission acquisition (0-120 min) were reconstructed with the manufacturer's proprietary iterative 3D algorithm (6 subsets and 4 iterations). SUVs were calculated by normalizing regional radioactivity for injected radioactivity and body weight.

[4] = human brain time-activity curves

Structure (SMILES): Cc1cnccc1CN1C[C@@H](c2cc(F)cc(F)c2)CC1=O [SynVesT-1]
- Ki (SV2A): 3.1 nM

Structure (SMILES): Cc1ccncc1CN1CC(c2cc(F)cc(F)c2)CC1=O (centres unmarked) [SDM-4MP3]
- Ki (SV2A): 291 nM

Structure (SMILES): Cc1ccncc1CN1C[C@@H](c2cc(F)cc([18F])c2)CC1=O [[^18F]SDM-4MP3]
- VT (SE %) from fitting of 1-TCM ([1]; Centrum semiovale, participant P1): 1.6 (1.8%)
- VT (SE %) from fitting of 1-TCM ([1]; Centrum semiovale, participant P2): 1.7 (2.0%)
- VT (SE %) from fitting of 1-TCM ([1]; Cerebellum, participant P1): 1.6 (1.4%)
- VT (SE %) from fitting of 1-TCM ([1]; Frontal cortex, participant P1): 1.8 (1.6%)
- VT (SE %) from fitting of 1-TCM ([1]; Frontal cortex, participant P2): 1.9 (3.4%)
- VT (SE %) from fitting of 1-TCM ([1]; Hippocampus, participant P1): 1.8 (1.4%)
- VT (SE %) from fitting of 1-TCM ([1]; Hippocampus, participant P2): 1.8 (3.4%)
- VT (SE %) from fitting of 1-TCM ([1]; Putamen, participant P1): 2.0 (1.3%)
- VT (SE %) from fitting of 1-TCM ([1]; Putamen, participant P2): 2.1 (3.4%)
- initial brain penetration (SUV) ([1]; human brain time-activity curves, P1): ~ 7 SUV
- clearance from brain ([1]; human brain time-activity curves, in contrast to [18F]SynVesT-1): rapid clearance from brain
- time of peak brain uptake [1, 4]: 2.5 min
- factor by which VT estimates were lower than expected ([1]; human, one-tissue compartment model, vs expected for [18F]SynVesT-1): > 10
- SUVR ([1]; throughout the brain, human): under 2
- rate of radiometabolism [2]: slightly slower
- initial peak uptake in the rodent brain ([3]; baseline): 3.2 SUV
- brain uptake in 0-120 min static image ([3]; rat, barely above tissues outside of the brain): very limited brain uptake
- whole-brain TAC clearance ([3]; rat, vs. [18F]SynVesT-1): much faster clearance
- brain uptake relative to blocked [18F]SynVesT-1 scans ([3]; rat, comparator scans after levetiracetam 30 mg/kg i.v. 15 min before tracer): lower than [^18F]SynVesT-1 scans performed under preblocking conditions with levetiracetam

Structure (SMILES): Cc1cnccc1CN1C[C@@H](c2cc(F)cc([18F])c2)CC1=O [[^18F]SynVesT-1, reference compound]
- VT (SE %) from fitting of 1-TCM ([1]; Centrum semiovale, participant P3): 2.9 (1.4%)
- VT (SE %) from fitting of 1-TCM ([1]; Centrum semiovale, participant P4): 3.5 (7.7%)
- VT (SE %) from fitting of 1-TCM ([1]; Cerebellum, participant P3): 13.1 (0.7%)
- VT (SE %) from fitting of 1-TCM ([1]; Cerebellum, participant P4): 16.3 (4.9%)
- VT (SE %) from fitting of 1-TCM ([1]; Frontal cortex, participant P3): 15.4 (0.4%)
- VT (SE %) from fitting of 1-TCM ([1]; Frontal cortex, participant P4): 18.3 (5.1%)
- VT (SE %) from fitting of 1-TCM ([1]; Hippocampus, participant P3): 14.9 (0.6%)
- VT (SE %) from fitting of 1-TCM ([1]; Hippocampus, participant P4): 17.0 (6.2%)
- VT (SE %) from fitting of 1-TCM ([1]; Putamen, participant P3): 16.1 (0.5%)
- VT (SE %) from fitting of 1-TCM ([1]; Putamen, participant P4): 22.23 (4.7%)
- SUVR ([1]; cortical regions, human): greater than 7
- time of peak brain uptake [1, 4]: 20 min
- initial peak uptake in the rodent brain ([3]; baseline): 7.6 ± 0.7 SUV
- brain uptake SUVs in static image ([3]; rat, 0-120 min static image, baseline): ~8 SUV
